Laboratory results reported in patent US10519134B2, “Pyrazole compounds and methods of making and using same” (Lundbeck La Jolla Research Center, Inc., priority 2015, dated 2019).

Assays:
Assay type in all cases: biochemical
MAGL [1] = biological target: T1, MAGL (Mus musculus, UniProt O35678); test: In vitro competitive activity-based protein profiling (mouse), MAGL gel band; conditions: for inhibition at 1 µM: read-out: MAGL % inh. 1 μM; for IC50: mouse
T1 construct: Proteomes (mouse brain membrane fraction or cell lysates); from tissue; host or cells: mouse brain membrane fraction (or cell lysates)
T1 sequence (O35678 1-303): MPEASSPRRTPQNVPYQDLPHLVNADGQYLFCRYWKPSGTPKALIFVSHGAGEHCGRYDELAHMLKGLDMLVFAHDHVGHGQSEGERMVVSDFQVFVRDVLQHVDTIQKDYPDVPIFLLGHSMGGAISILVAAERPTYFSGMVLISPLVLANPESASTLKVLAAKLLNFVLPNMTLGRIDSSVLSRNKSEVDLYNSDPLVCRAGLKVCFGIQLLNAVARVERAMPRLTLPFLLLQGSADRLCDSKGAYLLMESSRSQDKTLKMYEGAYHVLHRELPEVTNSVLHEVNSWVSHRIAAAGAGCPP
Summary of the method: (§1)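 Mouse brain membrane proteome or cell lysate (1.0 mg/mL protein) preincubated 30 min at 37 °C with varying inhibitor concentrations, then labelled 30 min at 37 °C with FP-Rh or HT-01 probe (50 μM stock). After SDS-PAGE, activity taken from fluorescent intensity of the MAGL and FAAH gel bands.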

FAAH = biological target: T2, FAAH (Mus musculus, UniProt O08914); test: In vitro competitive activity-based protein profiling (mouse), FAAH gel band; conditions: for inhibition at 1 µM: read-out: FAAH % inh. 1 μM; for IC50: mouse
T2 construct: Proteomes (mouse brain membrane fraction or cell lysates); from tissue; host or cells: mouse brain membrane fraction (or cell lysates)
T2 sequence (O08914 1-579): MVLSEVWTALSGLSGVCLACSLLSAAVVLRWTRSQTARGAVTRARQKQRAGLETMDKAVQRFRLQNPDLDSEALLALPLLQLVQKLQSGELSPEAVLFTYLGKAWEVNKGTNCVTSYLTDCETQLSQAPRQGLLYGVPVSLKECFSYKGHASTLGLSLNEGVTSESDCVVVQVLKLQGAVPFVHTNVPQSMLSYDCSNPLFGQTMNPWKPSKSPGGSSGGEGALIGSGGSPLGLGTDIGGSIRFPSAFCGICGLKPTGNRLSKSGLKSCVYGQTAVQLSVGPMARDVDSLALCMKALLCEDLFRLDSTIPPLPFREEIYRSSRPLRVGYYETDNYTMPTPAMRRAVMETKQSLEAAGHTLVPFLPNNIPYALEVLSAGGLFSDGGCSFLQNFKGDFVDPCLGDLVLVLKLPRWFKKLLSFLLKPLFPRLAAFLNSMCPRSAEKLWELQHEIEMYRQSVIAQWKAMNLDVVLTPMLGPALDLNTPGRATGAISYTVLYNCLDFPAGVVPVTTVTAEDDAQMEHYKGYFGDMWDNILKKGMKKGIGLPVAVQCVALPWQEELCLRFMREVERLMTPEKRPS
Summary of the method: as §1

MAGL [2] = biological target: T3, MAGL (Homo sapiens, UniProt Q99685); test: In vitro competitive activity-based protein profiling (human), MAGL gel band
T3 construct: Proteomes (human prefrontal cortex or cell membrane fractions); from tissue; host or cells: human prefrontal cortex (or cell membrane fractions)
T3 sequence (Q99685 1-303): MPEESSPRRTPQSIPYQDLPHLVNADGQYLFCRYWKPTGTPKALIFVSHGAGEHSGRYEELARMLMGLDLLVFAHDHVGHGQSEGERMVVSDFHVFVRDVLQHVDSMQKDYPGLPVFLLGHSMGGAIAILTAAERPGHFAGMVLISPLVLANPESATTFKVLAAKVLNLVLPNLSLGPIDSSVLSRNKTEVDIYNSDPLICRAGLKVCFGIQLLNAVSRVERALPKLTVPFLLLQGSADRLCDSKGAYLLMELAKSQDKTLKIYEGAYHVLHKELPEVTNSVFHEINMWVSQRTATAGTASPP
Protocol: In Vitro Competitive Activity-Based Protein Profiling (Human).
Proteomes (human prefrontal cortex or cell membrane fractions) (50 μL, 1.0-2.0 mg/mL total protein concentration) were preincubated with varying concentrations of inhibitors at 37° C. After 30 min, FP-Rh or JW912 (1.0 μL, 50 μM in DMSO) was added and the mixture was incubated for another 30 min at room temperature. Reactions were quenched with SDS loading buffer (15 μL—4×) and run on SDS-PAGE. Following gel imaging, serine hydrolase activity was determined by measuring fluorescent intensity of gel bands corresponding to MAGL using ImageJ 1.49k software.

Structure (SMILES) | inhibition at 1 µM (MAGL [1]) | inhibition at 1 µM (FAAH) | IC50 (MAGL [2]) | IC50 (MAGL [1]) | IC50 (FAAH)
CS(=O)(=O)Nc1ccn(C(=O)N2CCN(Cc3ccc(C(F)(F)F)cc3N3C4CCC3COC4)CC2)n1 [Example 206, N-(1-(4-(2-(3-oxa-8-azabicyclo[3.2.1]octan-8-yl)-4-(trifluoromethyl)benzyl)piperazine-1-carbonyl)-1H-pyrazol-3-yl) methanesulfonamide] | ≥ 75% | 0 to 25% | ≤ 100 nM |  | 
CS(=O)(=O)Nc1ccn(C(=O)N2CCN(Cc3ccc(C(F)(F)F)cc3-c3ccn(CC(=O)O)n3)CC2)n1 [Example 213, 2-(3-(2-((4-(3-(methylsulfonamido)-1H-pyrazole-1-carbonyl)piperazin-1-yl)methyl)-5-(trifluoromethyl)phenyl)-1H-pyrazol-1-yl)acetic acid] | ≥ 75% | 0 to 25% | 100 to 1000 nM |  | 
CC(C)n1cc(-c2cc(CN3CCN(C(=O)n4ccc(NS(C)(=O)=O)n4)CC3)ccc2Cl)cn1 [Example 237, N-(1-(4-(4-chloro-3-(1-isopropyl-1H-pyrazol-4-yl)benzyl)piperazine-1-carbonyl)-1H-pyrazol-3-yl) methanesulfonamide] | ≥ 75% | 0 to 25% | ≤ 100 nM |  | 
CC(=O)Nc1ccn(C(=O)N2CCN(Cc3ccc(C(F)(F)F)cc3N3CCC(C(C)(C)O)CC3)CC2)n1 [Example 266, N-(1-(4-(2-(4-(2-hydroxypropan-2-yl)piperidin-1-yl)-4-(trifluoromethyl)benzyl)piperazine-1-carbonyl)-1H-pyrazol-3-yl)acetamide] | ≥ 75% | 0 to 25% | ≤ 100 nM | ≤ 100 nM | 1 to 10 µM
CS(=O)(=O)Nc1ccn(C(=O)N2CCN(Cc3ccc(C(F)(F)F)cc3N3CCN(C(=O)CO)CC3)CC2)n1 [Example 116, N-(1-(4-(2-(4-(2-hydroxyacetyl)piperazin-1-yl)-4-(trifluoromethyl)benzyl)piperazine-1-carbonyl)-1H-pyrazol-3-yl)methanesulfonamide] | ≥ 75% | 0 to 25% | ≤ 100 nM |  | 
CC(=O)Nc1ccn(C(=O)N2CCN(Cc3ccc(C(F)(F)F)cc3N3CCN4CCC[C@H]4C3)CC2)n1 [Example 267, (S)-N-(1-(4-(2-(hexahydropyrrolo[1,2-a]pyrazin-2(1H)-yl)-4-(trifluoromethyl)benzyl)piperazine-1-carbonyl)-1H-pyrazol-3-yl)acetamide] | ≥ 75% | 0 to 25% | ≤ 100 nM | ≤ 100 nM | 1 to 10 µM
CC(=O)N1CC2(CCN(c3cc(C(F)(F)F)ccc3CN3CCN(C(=O)n4ccc(NS(C)(=O)=O)n4)CC3)CC2)C1 [Example 228, N-(1-(4-(2-(2-acetyl-2,7-diazaspiro[3.5]nonan-7-yl)-4-(trifluoromethyl)benzyl)piperazine-1-carbonyl)-1H-pyrazol-3-yl) methanesulfonamide] | ≥ 75% | 0 to 25% | ≤ 100 nM |  | 
CC1CCCN1c1cc(C(F)(F)F)ccc1CN1CCN(C(=O)n2ccc(NS(C)(=O)=O)n2)CC1 (centres unmarked) [Example 189, N-(1-(4-(2-(2-methylpyrrolidin-1-yl)-4-(trifluoromethyl)benzyl)piperazine-1-carbonyl)-1H-pyrazol-3-yl) methanesulfonamide] | ≥ 75% | 0 to 25% | ≤ 100 nM |  | 
CS(=O)(=O)Nc1ccn(C(=O)N2CCN(Cc3ccc(Cl)c(N4CC[C@@H](O)C4)c3)CC2)n1 [Example 293, (R)-N-(1-(4-(4-chloro-3-(3-hydroxypyrrolidin-1-yl)benzyl)piperazine-1-carbonyl)-1H-pyrazol-3-yl) methanesulfonamide] | ≥ 75% | 0 to 25% | ≤ 100 nM |  | 
CS(=O)(=O)Nc1ccn(C(=O)N2CCN(Cc3ccc(N4CCCC4)c(Cl)c3)CC2)n1 [Example 166, N-(1-(4-(3-chloro-4-(pyrrolidin-1-yl)benzyl)piperazine-1-carbonyl)-1H-pyrazol-3-yl) methanesulfonamide] | ≥ 75% | 0 to 25% | ≤ 100 nM |  | 
CS(=O)(=O)Nc1ccn(C(=O)N2CCN(Cc3cc(N4CCCC4)ccc3Cl)CC2)n1 [Example 194, N-(1-(4-(2-chloro-5-(pyrrolidin-1-yl)benzyl)piperazine-1-carbonyl)-1H-pyrazol-3-yl) methanesulfonamide] | ≥ 75% | 0 to 25% | 100 to 1000 nM |  | 
CS(=O)(=O)Nc1ccn(C(=O)N2CCN(Cc3ccc(C(F)(F)F)cc3N3CCOCC3)CC2)n1 [Example 140, N-(1-(4-(2-morpholino-4-(trifluoromethyl)benzyl)piperazine-1-carbonyl)-1H-pyrazol-3-yl) methanesulfonamide] | ≥ 75% | 0 to 25% | ≤ 100 nM | 100 to 1000 nM | 1 to 10 µM
CS(=O)(=O)Nc1ccn(C(=O)N2CCN(Cc3ccc(Cl)c(N4CCCCC4)c3)CC2)n1 [Example 236, N-(1-(4-(4-chloro-3-(piperidin-1-yl)benzyl)piperazine-1-carbonyl)-1H-pyrazol-3-yl) methanesulfonamide] | ≥ 75% | 0 to 25% | ≤ 100 nM |  | 
CS(=O)(=O)Nc1ccn(C(=O)N2CCN(Cc3ccc(C(F)(F)F)cc3N3CCC(S(C)(=O)=O)CC3)CC2)n1 [Example 209, N-(1-(4-(2-(4-(methylsulfonyl)piperidin-1-yl)-4-(trifluoromethyl)benzyl)piperazine-1-carbonyl)-1H-pyrazol-3-yl) methanesulfonamide] | ≥ 75% | 0 to 25% | ≤ 100 nM |  | 
CS(=O)(=O)Nc1ccn(C(=O)N2CCN(Cc3ccc(C(F)(F)F)c(N4CCN5CCC[C@H]5C4)c3)CC2)n1 [Example 287, (S)-N-(1-(4-(3-(hexahydropyrrolo[1,2-a]pyrazin-2(1H)-yl)-4-(trifluoromethyl)benzyl)piperazine-1-carbonyl)-1H-pyrazol-3-yl) methanesulfonamide] | ≥ 75% | 0 to 25% | ≤ 100 nM |  | 
CS(=O)(=O)Nc1ccn(C(=O)N2CCC3(CCCN3Cc3cc(Cl)cc(C(F)(F)F)c3)CC2)n1 [Example 198, N-(1-(1-(3-chloro-5-(trifluoromethyl)benzyl)-1,8-diazaspiro[4.5]decane-8-carbonyl)-1H-pyrazol-3-yl) methanesulfonamide] | ≥ 75% | 25 to 50% | ≤ 100 nM |  | 
CS(=O)(=O)Nc1ccn(C(=O)N2CCC3(CCCN3Cc3cc(Cl)cc(N4CCCC4)c3)CC2)n1 [Example 193, N-(1-(1-(3-chloro-5-(pyrrolidin-1-yl)benzyl)-1,8-diazaspiro[4.5]decane-8-carbonyl)-1H-pyrazol-3-yl) methanesulfonamide] | ≥ 75% | 0 to 25% | ≤ 100 nM |  | 
CC(C)(O)C1CCN(c2cc(C(F)(F)F)ccc2CN2CCN(C(=O)n3ccc(NS(C)(=O)=O)n3)CC2)CC1 [Example 270, N-(1-(4-(2-(4-(2-hydroxypropan-2-yl)piperidin-1-yl)-4-(trifluoromethyl)benzyl)piperazine-1-carbonyl)-1H-pyrazol-3-yl) methanesulfonamide] | ≥ 75% | 0 to 25% | ≤ 100 nM | ≤ 100 nM | 1 to 10 µM
